Earlier results as cited in US4474765A, “Biologically active peptides” (Farmitalia Carlo Erba S.p.A., priority 1982, dated 1984).

Tested on: release of ACTH, β-endorphin, growth hormone, TSH and prolactin
Conditions: literature, Montecucchi et al. 1979

For `CC[C@H](C)[C@H](NC(=O)[C@@H](NC(=O)[C@H](CC(=O)O)NC(=O)[C@H](CC(C)C)NC(=O)[C@H](CC(C)C)NC(=O)[C@H](CC(C)C)NC(=O)[C@H](CCCNC(=N)N)NC(=O)[C@H](CC(N)=O)NC(=O)[C@H](CC(N)=O)NC(=O)[C@H](C)NC(=O)[C@H](C)NC(=O)[C@H](CCC(N)=O)NC(=O)[C@H](CCC(N)=O)NC(=O)[C@H](CCCCN)NC(=O)[C@H](CCC(=O)O)NC(=O)[C@H](CCCCN)NC(=O)[C@H](CCC(=O)O)NC(=O)[C@H](CCC(N)=O)NC(=O)[C@H](CCCCN)NC(=O)[C@H](CCC(=O)O)NC(=O)[C@@H](NC(=O)[C@H](CCC(=O)O)NC(=O)[C@@H](NC(=O)[C@H](CCSC)NC(=O)[C@H](CCCCN)NC(=O)[C@H](CCCNC(=N)N)NC(=O)[C@H](CC(C)C)NC(=O)[C@H](CC(C)C)NC(=O)[C@H](CCC(=O)O)NC(=O)[C@H](CC(C)C)NC(=O)[C@H](CO)NC(=O)[C@H](CC(C)C)NC(=O)[C@H](CC(=O)O)NC(=O)[C@@H](NC(=O)[C@H](CO)NC(=O)[C@@H](NC(=O)[C@@H]1CCCN1C(=O)[C@@H]1CCCN1C(=O)CNC(=O)[C@@H]1CCC(=O)N1)[C@@H](C)CC)[C@@H](C)CC)[C@@H](C)CC)[C@@H](C)CC)[C@@H](C)O)C(N)=O` [sauvagine], the “pharmacological activities (hormone release)” value is given as “release of ACTH and β-endorphin, and inhibition of the release of growth hormone, TSH and prolactin”.
